Four compounds from patent publication US11634452B2, “Compounds for treating neurodegenerative disorders” (ETHNODYNE, priority 2017, dated 2023) can be followed below.

“And” between values parts separate entries of the source, which are not always exact repeats. Equal entries are not always repeated. Where only a bound is given, the exact number is not on record here.

What all share (format): cell-based
Test [1] has as its system primary rat dopaminergic neurons (TH positive neurons) injured with 6-OHDA. As to the kind of experiment: Neuroprotective effect following exposure to 6-OHDA, with or without pathway inhibitors. Conditions: 6-OHDA 20 μM, 48 h, no compound. The procedure: This study investigated the mode of action of CR777 on rat primary mesencephalic cultures following exposure to 6-OHDA. The effect of CR777 on level of GDNF and BDNF mRNA was investigated after 24 h 6-OHDA incubation and CR777. The main pathways of survival, regulation of the apoptosis and neuronal growth were investigated in presence of CR777 and inhibitors of these different pathways. The following pathways were investigated using antagonists of different proteins of interest: • RAS (small GTPase)/RAF (proto-oncogene Serine/threonine kinase); • Peroxisome proliferator-activated receptor gamma (PPAR-γ) (nuclear receptor) • The Pi3K/AKT/mTor (cell signaling pathway that plays a key role in cellular homeostasis through its role in regulation of apoptosis, cell growth, cell cycle). • NO (nitric oxide) pathway
Rat dopaminergic neurons were cultured as described in Example 4.
On day 6 of culture, the medium was removed and fresh medium was added, without or with 6-OHDA (Sigma, Batch: 083M4624V) at 20 μM diluted in control medium and let for 48 h. In parallel, all inhibitors were solved in culture medium and were added 2 h before the 6-OHDA application (namely 1 h before test compounds application).
CR777 was solved in DMSO at 10 mM, diluted in culture medium and then pre-incubated with mesencephalic neurons 1 hour before the 6-OHDA application (48 h). 6 wells per condition were assessed.
For survival and α-syn aggregation, compound was tested on 1 culture in a 96 well-plate (6 wells per condition), was pre-incubated 1 hour before 6-OHDA and let for 48 hours.
The following conditions were assessed: • Control (culture medium) • +6-OHDA (20 μM, 48 h) • +6-OHDA (20 μM, 48 h)+CR777 1 μM • +6-OHDA (20 μM, 48 h)+CR777 100 nM • +6-OHDA (20 μM, 48 h)+CR777 10 nM • +6-OHDA (20 μM, 48 h)+CR777 1 nM
For pathway investigation, the compound was tested on one primary dopaminergic culture in 96 well plates (6 wells per conditions).
Inhibitors were pre-incubated for 2 hours before 6-OHDA application and CR777 was pre-incubated 1 hour before 6-OHDA application.
The antagonists/inhibitors used in the experiments are the following: • FTS: farnesylthiosalicylic acid selectively disrupts the association of chronically active Ras proteins with the plasma membrane. • BEZ-235: dual PI3K/mTOR inhibitor. • T0070907: selective PPAR-γ antagonist • L-NAME (Nitro-L-arginine methyl ester): precursor to NOS inhibitor, L-NNA—requires bioactivation to become a fully functional inhibitor. • ABT-199: selective inhibitor of Bcl-2.
48 hours after intoxication, the cell culture supernatant was taken off and the dopaminergic neurons were fixed by a solution of 4% paraformaldehyde in PBS, pH=7.3 for 20 min at room temperature.
After permeabilization with 0.1% of saponin, cells were incubated for 2 hours with:
monoclonal Anti-Tyrosine Hydroxylase (TH) antibody produced in mouse at dilution of 1/10000 in PBS containing 1% FCS, 0.1% saponin,
polyclonal anti-α-syn antibody produced in rabbit at dilution of 1/200 for 2 h at room temperature.
For each condition, 20 pictures/well (representative of ˜the all well area) were automatically taken using ImageXpress (Molecular Devices) with 10× magnification. All images were taken with the same conditions. Analysis were automatically performed by using Custom Module Editor (Molecular Devices).
The following endpoint was investigated for each culture well: • The total dopaminergic neuron survival (TH staining), • The total area of α-syn on TH positive neuron (overlapping α-syn/TH)
After permeabilization with 0.1% of saponin, cells were incubated for 2 hours with monoclonal Anti-Tyrosine Hydroxylase (TH) antibody produced in mouse at dilution of 1/10000 in PBS containing 1% FCS, 0.1% saponin, for 2 h at room temperature.
The total dopaminergic neuron survival (TH staining) was investigated for each culture well.

Test [2] concerns primary rat cortical neurons injured with glutamate. As to the kind of experiment: Effect in rat primary cortical neurons after glutamate injury. The following applies: glutamate 40 μM, 20 min, no compound. The procedure: A., et al., 1999. J Neurosci 19: 2455-2463 and Callizot.
The medium was changed every 2 days. The cortical neurons were intoxicated with glutamate solution.
The following conditions were assessed: • Control (culture medium) • + glutamate (40 μM, 20 min) • + glutamate (40 μM, 20 min)+CR777 (at each concentration)

Test [3] concerns primary rat motor neurons injured with glutamate. As to the kind of experiment: Primary motor neuron culture survival after glutamate exposure (in vitro ALS model). Conditions: glutamate 5 μM for 20 min, no compound. As for the experimental part:
The aim of this study was to study the effect of CR777 on primary motor neuron culture from rat spinal cord (SC) injured by glutamate exposure (a well validated in vitro ALS model and model of motor neuron diseases).
Rat SC motor neurons were cultured as described by Martinou et al., Neuron. 1992 April; 8(4):737-44 and Wang et al., Hum Mol Genet. 2013 Dec. 1; 22(23):4706-19. Briefly, pregnant female rats (Wistar, Janvier labs) of 14 days gestation were killed by cervical dislocation. […] Cells were then centrifuged at 180 g for 10 min at +4° C. on a layer of BSA (3.5%) in L15 medium. […] The medium was changed every day.
The following conditions were assessed: • Control • + glutamate (5 μM 20 mn then 48 h) • + glutamate (5 μM 20 mn then 48 h)+CR777 1 pmol/L • + glutamate (5 μM 20 mn then 48 h)+CR777 10 pmol/L • + glutamate (5 μM 20 mn then 48 h)+CR777 100 pmol/L • + glutamate (5 μM 20 mn then 48 h)+CR777 1 nmol/L • + glutamate (5 μM 20 mn then 48 h)+CR777 10 nmol/L • + glutamate (5 μM 20 mn then 48 h)+CR777 100 nmol/L • + glutamate (5 μM 20 mn then 48 h)+CR777 1 μmol/L • + glutamate (5 μM 20 mn then 48 h)+CR777 10 μmol/L […]
For each condition, 6 wells were assessed, 30 pictures per well were taken using ImageXpress (Molecular Devices) with 20× magnification, to assess motor neuron survival (MAP-2). […]

Test [4] relates to primary rat dopaminergic neurons (TH positive neurons) injured with MPP+. In words: Neuroprotective effect following exposure to MPP+. The following applies: MPP+ 4 μM, 48 h, no compound. The procedure:
This study investigated the neuroprotective effect of the Compound CR777 of example 1 on rat primary mesencephalic cultures following exposure to 1-methyl-4-phenyl pyridinium (MPP^+).
Rat dopaminergic neurons were cultured as described by Visanji et al., 2008 FASEB J. 2008; 22(7):2488-97. Briefly, the midbrains obtained from 15-day old rat embryos (Janvier Labs, France) were dissected under a microscope. The embryonic midbrains were removed and placed in ice-cold medium of Leibovitz (L15, Batch 4290114, Pan Biotech, Germany) containing 2% of Penicillin-Streptomycin (PS, Batch 1451013, Pan Biotech) and 1% of bovine serum albumin (BSA, Batch K030913, Pan Biotech). The ventral portion of the mesencephalic flexure, a region of the developing brain rich in dopaminergic neurons, was used for the cell preparations.
The midbrains were dissociated by trypsinisation for 20 min at 37° C. […] The cells were seeded in supplemented neurobasal medium at a density of 40 000 cells/well in 96 well-plates pre-coated with poly-L-lysine (Batch 3102256, Corning Biocoat) and maintained in a humidified incubator at 37° C. in 5% CO2/95% air atmosphere. Half of the medium was changed every 2 days with fresh medium.
On day 6 of culture, the medium was removed and fresh medium was added, without or with MPP+ at 4 μM diluted in control medium and let for 48 h. […]
The following conditions were assessed: (6 wells per condition) • Control (vehicle) • Compound CR777 of example 1 (1 pmol/L) • Compound CR777 of example 1 (10 pmol/L) • Compound CR777 of example 1 (100 pmol/L) • Compound CR777 of example 1 (1 nmol/L) • Compound CR777 of example 1 (10 nmol/L) • Compound CR777 of example 1 (100 nmol/L) • Compound CR777 of example 1 (1 μmol/L) • Compound CR777 of example 1 (10 μmol/L) […]
Data were expressed in percentage of control conditions (no injury, no compound=100%). All values were expressed as mean+/−SEM (standard error mean) of the 6 wells with statistical analyses on the different conditions (ANOVA followed by Dunnett's test when allowed, using GraphPad Prism software).

In test [5] the test system is primary rat cortical neurons injured with Aβ1-42. In words: Neuroprotective effect on an in vitro model of Alzheimer disease. The following applies: Aβ1-42 20 μM, 24 h, no compound. As for the experimental part: These peptides contribute to cerebrovascular lesions and are neurotoxic. This study investigated the neuroprotective effect of the plant extract of the invention on rat primary cortical cultures following exposure to Aβ1-42 in an in vitro AD model (Callizot. N., et al., 2013).
Rat cortical neurons were cultured as described in Example 6.
The cortical neurons were intoxicated with amyloid beta peptides solutions after 11 days of culture in presence of tested compound CR777.
Briefly, Aβ1-42 peptide (Batch: APN09080-1-1, Abcam, United Kingdom) was dissolved in the defined culture medium B27 mentioned above, devoid of serum, at an initial concentration of 40 μmol/L. This solution was gently agitated for 3 days at 37° C. in the dark and immediately used after being properly diluted in culture medium to the concentrations used (20 μM corresponding to 2 μM of AβO, measuring by WB, for survival, neurite network, tau phosphor and caspase 3 activation and 2.5 μM corresponding to 0.25 μM of AβO, for synapses evaluation).
CR777 was solved in DMSO at 10 mM and diluted in culture medium at different concentrations (see table below). The compound was tested on one primary cortical culture in 96 well plates (6 wells per conditions), and was pre-incubated 1 hour before Aβ1-42 application for 24 hours.
24 hours after intoxication, the cell culture supernatant was taken off and the cortical neurons were fixed by a cold solution of ethanol (95%) and acetic acid (5%) for 5 min at −20° C. • Plate 1: Immunostainning (MAP-2/Tau Phosphor)
After permeabilization with 0.1% of saponin, cells were incubated for 2 hours with a) a mouse monoclonal antibody anti phosphoT at dilution of 1/400 in PBS containing 1% fetal calf serum and 0.1% of saponin and b) a chicken polyclonal antibody anti microtubule-associated-protein 2 (MAP-2) at dilution of 1/1000 in PBS containing 1% fetal calf serum and 0.1% of saponin (this antibody stains specifically cell bodies and neurites, allowing study of neuronal cell survival and neurite network).
For each condition, 30 pictures/well (representative of ˜the all well area) were taken automatically using ImageXpress (Molecular Devices) with 20× magnification. All images were taken with the same conditions. Analysis were performed automatically by using Custom Module Editor (Molecular Devices).
The following endpoints were investigated per culture well: • The total neuron survival (MAP-2 staining), • The neurite network (MAP-2 staining) and • hyperphophorylation of T protein (pT) into neurons (pT/MAP-2). • Plate 2: Immunostainning (MAP-2/Caspase 3)
For each condition, 30 pictures/well (representative of ˜the all well area) were taken automatically using ImageXpress (Molecular Devices) with 20× magnification. All images were taken with the same conditions. Analysis were performed automatically by using Custom Module Editor (Molecular Devices). • The total number of caspase 3 positive neuron (overlapping caspase3/MAP-2) were investigated per culture well:
Data is expressed in percentage of control conditions (no injury, no compound=100%). All values are expressed as mean+/−SEM (standard error of the mean) from 6 wells per condition per culture. Neuro-Sys performed graphs and statistical analyses on the different conditions (ANOVA followed by Dunnett's test when allowed, using GraphPad Prism software version 5.0).

Regarding `NCCc1cc(O)c(O)cc1O` [Compound 6-OHDA, reference compound], in test [1], the “TH positive neuronal death induced by the toxin” value is recorded as around 30%; the “loss of the neurite network induced by the toxin” value was ~35% and ~40%; the “α-syn aggregation inside TH neuron cytoplasm induced by the toxin” value was “large and significant α-syn aggregation”.
For the compound `N[C@@H](CCC(=O)O)C(=O)O` [Glutamate, glutamate, reference compound], in test [2], the “neurite network loss induced by glutamate” value was “neurite network loss” and the “neuronal death induced by glutamate” value was “significant neuronal death”. Besides, in test [3], the “motor neuron death induced by glutamate” value was above 30%.
`C[n+]1ccc(-c2ccccc2)cc1` [MPP+, 1-methyl-4-phenyl pyridinium, reference compound]: the “TH positive neuron cell death induced by the toxin” value in test [4] is listed as above 35%.
In the case of “Amyloid beta peptide 1-42 [Aβ, reference compound]”, in test [5], the “caspase 3 activation induced by Aβ” value was “activation of caspase 3”, the “hyperphosphorylation of tau induced by Aβ” value was “increase of the hyperphosphorylation of tau” and the “neurite network loss induced by Aβ” value was around 40%.
